# Measurements from patent publication US9879029B2, “ERK inhibitors” (Eli Lilly and Company, priority 2014, dated 2018).
# Tests used:
# [1] = system: human melanoma cells A-375; assay: Xenograft tumor model A-375; type: in vivo, female NIH nude rats; conditions: oral; for Regression (%): p <0.001
# Experimental: (§1) The purpose of this assay is to measure reduction in tumor volume in response to test compound administration. Expand human colorectal cancer cells HCT116 (ATCC, #CCL-247) or human non-small cell lung cancer cells NCI-H358 (ATCC, # CRL-5807) in culture, harvest and inject 5×10e^6 cells in 200 μL of 1:1 HBSS+matrigel solution subcutaneously on to the rear right flank of female athymic nude mice (22-25 gm, Harlan Laboratories). Expand human pancreatic cancer cells SW1990 (ATCC, # CRL-2172) in culture, harvest and inject 2×10e^6 cells in 200 μL of 1:1 HBSS+matrigel solution subcutaneously on to the rear right flank of female athymic nude mice (22-25 gm, Harlan Laboratories). Expand human pancreatic cancer cells MIA PACA-2 (ATCC, # CRL-1420) or human non-small cell lung cancer cells A549 (ATCC, # CCl-185) in culture, harvest and inject 5×10e^6 cells in 200 μL of 1:1 HBSS+matrigel solution subcutaneously on to the rear right flank of female CB-17 SCID mice (22-25 gm, Charles River Laboratories International Inc.). Expand human melanoma cells A-375 (ATCC, # CRL-1619) in culture, harvest and inject 5×10e^6 cells in 200 μL of 1:1 HBSS+matrigel solution subcutaneously on to the rear right flank of female NIH nude rats (140-160 gm, Taconic Farms). Measure tumor growth and body weight twice per week beginning the seventh day after the implantation. When tumor sizes reach 200-400 mm^3, randomize animals and group into groups of eight to ten animals. Prepare test compound in an appropriate vehicle (vehicle: 1% HEC/0.25% Tween 80/0.05% Antifoam) and administer by oral gavage for 14 to 28 days. Tumor response is determined by tumor volume measurement performed twice a week during the course of treatment.
# [2] = system: ERK substrate (RSK) phosphorylation in HCT116 colorectal cancer cell line; assay: ERK1/2 cell mechanistic assay (pRSK1 Alphascreen assay); type: cell-based; conditions: Homo sapiens, HCT-116, 2 h; HCT116 cells, two hours, Rel IC50; read-out: pRSK1 inhibition IC50
# Experimental: The purpose of this assay is to measure the ability of compounds to inhibit ERK signaling in cancer cells in vitro. Carry out the pRSK1 Alphascreen assay using the HCT116 colorectal cancer cell line (ATCC, # CCL-247). Routinely culture HCT116 cells in Dulbecco's Modified Eagle's Medium (DMEM) (Hyclone, #SH30022) growth medium containing 5% Fetal Bovine Serum (FBS) (Gibco, #16000-044) in T-150 flasks and incubate in a 5% CO2 incubator at 37° C. Harvest cells when they become confluent and freeze in freezing medium at 1×10e^7 cells/mL as “assay ready frozen cells” and store in liquid nitrogen. To run the assay, plate 40,000 HCT116 cells/well in a 96-well tissue culture plate and incubate at 37° C. in a 5% CO2 incubator overnight. Test compounds at 10 concentrations starting at a 20 μM top concentration and utilize a 1:3 dilution scheme (20 μM to 0.001 μM) with a final DMSO concentration of 0.5% (v/v). Add compounds in 20 μL serum free growth medium and incubate at 37° C. for two hours. Remove growth medium and add 50 μL of 1× lysis buffer [Cell Signaling Technology, #9803] containing 1×holt protease and phosphatase inhibitor cocktail [Thermo, #78441] to each well and incubate at room temperature for 10 minutes on a shaker. […] Measure the fluorescence intensity in each well by reading the plates in ENVISION® (PerkinElmer) plate reader. […]
# [3] = system: CALU-6; assay: Xenograft tumor model CALU-6; type: in vivo; conditions: oral
# [4] = molecular target: T1, ERK1 (Homo sapiens, UniProt P27361); assay: ERK1 kinase assay (TR-FRET); type: biochemical; conditions: Abs_IC50, ATP 10 μM; ±0.608, n=16
# T1 construct: purchased Invitrogen PR5254B
# T1 sequence (P27361 whole entry): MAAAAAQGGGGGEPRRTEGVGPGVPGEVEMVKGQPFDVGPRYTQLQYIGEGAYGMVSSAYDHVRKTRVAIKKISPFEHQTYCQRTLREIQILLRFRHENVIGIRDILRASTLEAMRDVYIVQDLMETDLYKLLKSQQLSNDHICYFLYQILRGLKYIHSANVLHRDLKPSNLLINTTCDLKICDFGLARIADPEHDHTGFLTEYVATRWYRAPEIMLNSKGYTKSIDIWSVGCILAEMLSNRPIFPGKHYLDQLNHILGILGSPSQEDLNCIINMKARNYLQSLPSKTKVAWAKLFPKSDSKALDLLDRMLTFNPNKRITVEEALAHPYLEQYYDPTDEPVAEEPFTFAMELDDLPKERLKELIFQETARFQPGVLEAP
# Experimental: The purpose of this assay is to measure the ability of compounds to inhibit ERK1 kinase activity. Perform the ERK1 kinase assay in vitro using a TR-FRET assay. […] Incubate the reaction mixture at room temperature for 60 minutes. Stop the reaction by addition of 12.5 μL of stop buffer (10 mM EDTA, 2 nM Tb-anti-pATF2 (pThr71) antibody, Invitrogen, #PV4448) in TR-FRET dilution buffer (Invitrogen, # PV3574). Incubate the plates at room temperature for an additional 60 minutes and read on an ENVISION® (PerkinElmer) plate reader at the excitation wavelength 340 nm. Calculate the TR-FRET ratio by dividing the GFP acceptor emission signal (at 520 nm) by the Tb donor emission signal (at 495 nm). Calculate percent inhibition using compound treated wells relative to on-plate Max (DMSO control) and Min (No enzyme added) control wells TR-FRET ratio data {% inhibition=100−[(test compound−median Min)/(median Max−median Min)×100]}). Test all compounds at 10 concentrations (20 μM to 0.001 μM) using a 1:3 dilution scheme. Derive Abs_IC50 values by fitting percent inhibition and ten-point concentration data to a 4-parameter nonlinear logistic equation (equation 205) using ACTIVITYBASE® 7.3 (ID Business Solutions Limited).
# [5] = system: human pancreatic cancer cells SW1990; assay: Xenograft tumor model SW1990; type: in vivo, female athymic nude mice; conditions: oral
# Experimental: as §1, with “Measure tumor growth and body weight twice per week beginning the seventh day after the implantation. When tumor sizes reach 200-400 mm^3, randomize animals and group into groups of eight to ten animals. Prepare test compound in an appropriate vehicle (vehicle: 1% HEC/0.25% Tween 80/0.05% Antifoam) and administer by oral gavage for 14 to 28 days.” left out
compound,measurement,setting,value
"COCCN1C(=O)c2cc(-c3ccnc(Nc4ccnn4C)c3)sc2C1(C)C [Example 1, 5-(2-Methoxyethyl)-6,6-dimethyl-2-{2-[(1-methyl-1H-pyrazol-5-yl)amino]pyridin-4-yl}-5,6-dihydro-4H-thieno[2,3-c]pyrrol-4-one]",Regression (%),"[1]; A-375, 3 mg/kg BID",−60%
same,Delta T/C (%),"[1]; A-375, 3 mg/kg QD, p 0.852",10%
same,Regression (%),"[1]; A-375, 15 mg/kg BID",−47%
same,IC50,[2],261 nM
same,Delta T/C (%),"[3]; CALU-6, 10 mg/kg BID, p 0.013",44%
same,Regression (%),"[3]; CALU-6, 25 mg/kg BID, p <0.001",−10%
same,Delta T/C (%),"[3]; CALU-6, 25 mg/kg QD, p 0.010",46%
same,Regression (%),"[3]; CALU-6, 50 mg/kg BID, p <0.001",−75%
same,Delta T/C (%),"[3]; CALU-6, 50 mg/kg QD, p <0.001",92%
same,Regression (%),"[3]; CALU-6, 75 mg/kg QD, p <0.001",−38%
same,IC50,[4],1.5 nM
same,Delta T/C (%),"[5]; SW1990, 10 mg/kg BID, p 0.364",24%
same,Delta T/C (%),"[5]; SW1990, 30 mg/kg BID, p 0.005",64%
